The text below walks through data of ChEMBL document CHEMBL1123112, “A new generation of phosphodiesterase inhibitors: multiple molecular forms of phosphodiesterase and the potential for drug selectivity” (J Med Chem, 1985).

Molecules are shown by their SMILES. Where only a bound is given, the exact number is not on record here.

The target in assay [1] is T1, Phosphodiesterase 1 (Homo sapiens, UniProt P54750+Q01064+Q14123). Briefly: Binding affinity for [Ca(2+)]/calmodulin dependent phosphodiesterase PDE 1 of sheep lung. The format is protein assay, Ovis aries. The settings on record: target entry is the homologue from another species.
Assay [2] deals with T2, Phosphodiesterase 3 (Homo sapiens, UniProt Q14432+Q13370). As to the kind of experiment: Binding affinity for low Km cAMP phosphodiesterase PDE III of sheep lung. The settings on record: target entry is the homologue from another species.
Assay [3] has as its target T3, cGMP-dependent 3',5'-cyclic phosphodiesterase (Homo sapiens, UniProt O00408). Briefly: Inhibition of cyclic GMP sensitive phosphodiesterase PDE 2 of guinea pig ventricle. Further details: species or system Cavia porcellus. To be noted: target entry is the homologue from another species.
Assay [4] has as its target T1, Phosphodiesterase 1. Briefly: Inhibition of [Ca(2+)]/calmodulin dependent phosphodiesterase PDE 1 of guinea pig ventricle. It counts as protein assay, Cavia porcellus. To be noted: target entry is the homologue from another species.
For assay [5], the target named is T2, Phosphodiesterase 3. As to the kind of experiment: Inhibition of low Km cyclic cAMP phosphodiesterase PDE III of guinea pig ventricle. It counts as protein assay, Cavia porcellus. To be noted: target entry is the homologue from another species.
Assay [6] concerns the target T3, cGMP-dependent 3',5'-cyclic phosphodiesterase. Briefly: Inhibition of cyclic GMP sensitive phosphodiesterase PDE 2 of human lung.
Assay [7] addresses T1, Phosphodiesterase 1. As to the kind of experiment: Inhibition of [Ca(2+)]/calmodulin dependent phosphodiesterase PDE 1 of human lung. The format is protein assay.
Assay [8] addresses T1, Phosphodiesterase 1. As to the kind of experiment: Binding affinity for [Ca(2+)]/calmodulin dependent phosphodiesterase PDE 1 of human brain.
In assay [9] the target is T2, Phosphodiesterase 3. Briefly: Binding affinity for low Km cAMP phosphodiesterase PDE III of human platelets.
Assay [10] addresses T1, Phosphodiesterase 1. Briefly: Inhibition of [Ca(2+)]/calmodulin dependent phosphodiesterase PDE 1 of human brain.
Assay [11] deals with T2, Phosphodiesterase 3. Briefly: Inhibition of low Km cAMP phosphodiesterase PDE III of human platelets.
Assay [12] addresses T1, Phosphodiesterase 1. Briefly: Inhibition of [Ca(2+)]/calmodulin dependent phosphodiesterase PDE 1 of rabbit renal cortex. The settings on record: Oryctolagus cuniculus; target entry is the homologue from another species.
Assay [13] addresses T2, Phosphodiesterase 3. As to the kind of experiment: Binding affinity for low Km cAMP phosphodiesterase PDE III of sheep lung. The format is protein assay, Ovis aries. The settings on record: target entry is the homologue from another species.
For assay [14], the target named is T3, cGMP-dependent 3',5'-cyclic phosphodiesterase. Briefly: Percent inhibition of cyclic GMP sensitive phosphodiesterase PDE 2 of guinea pig ventricle. To be noted: Cavia porcellus; target entry is the homologue from another species; concentration not given here.
Assay [15] addresses T1, Phosphodiesterase 1. As to the kind of experiment: Percent inhibition of [Ca(2+)]/calmodulin dependent phosphodiesterase PDE 1 of guinea pig ventricle. The format is protein assay. To be noted: Cavia porcellus; target entry is the homologue from another species; concentration not given here.
Assay [16] concerns the target T2, Phosphodiesterase 3. As to the kind of experiment: Percent inhibition of low Km cyclic cAMP phosphodiesterase PDE III of guinea pig ventricle. It counts as protein assay. To be noted: Cavia porcellus; target entry is the homologue from another species; concentration not given here.
Assay [17] addresses T2, Phosphodiesterase 3. Briefly: Inhibition of low Km cyclic AMP phosphodiesterase PDE III of canine ventricle. The format is protein assay, Canis lupus familiaris. To be noted: target entry is the homologue from another species.

T3 sequence (O00408 whole entry): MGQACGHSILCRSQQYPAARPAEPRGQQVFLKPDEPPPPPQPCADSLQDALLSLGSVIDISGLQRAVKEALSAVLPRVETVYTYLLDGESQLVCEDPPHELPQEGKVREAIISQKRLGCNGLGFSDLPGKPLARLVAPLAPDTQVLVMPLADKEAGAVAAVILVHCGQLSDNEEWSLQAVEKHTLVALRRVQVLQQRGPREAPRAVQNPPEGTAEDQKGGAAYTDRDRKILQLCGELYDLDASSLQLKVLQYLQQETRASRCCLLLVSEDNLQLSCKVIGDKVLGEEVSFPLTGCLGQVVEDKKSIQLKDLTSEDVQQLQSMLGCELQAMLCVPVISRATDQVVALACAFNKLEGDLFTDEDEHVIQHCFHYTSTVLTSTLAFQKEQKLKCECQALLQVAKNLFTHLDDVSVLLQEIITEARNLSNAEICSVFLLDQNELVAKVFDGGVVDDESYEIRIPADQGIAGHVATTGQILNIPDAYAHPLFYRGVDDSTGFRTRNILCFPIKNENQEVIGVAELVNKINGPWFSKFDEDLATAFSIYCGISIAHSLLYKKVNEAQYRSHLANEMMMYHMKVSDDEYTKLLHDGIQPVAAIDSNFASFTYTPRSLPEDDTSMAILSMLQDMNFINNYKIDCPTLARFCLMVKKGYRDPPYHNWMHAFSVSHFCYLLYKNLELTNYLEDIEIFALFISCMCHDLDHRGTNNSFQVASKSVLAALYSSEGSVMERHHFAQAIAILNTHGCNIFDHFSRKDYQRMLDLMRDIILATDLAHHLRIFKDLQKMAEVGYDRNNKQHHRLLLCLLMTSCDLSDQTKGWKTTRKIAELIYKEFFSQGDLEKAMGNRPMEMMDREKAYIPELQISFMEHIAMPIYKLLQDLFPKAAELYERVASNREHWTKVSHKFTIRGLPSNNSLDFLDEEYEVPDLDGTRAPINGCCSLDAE

Take `CCCc1nc(C)cn2c(NC(C)=O)nnc12`: the Ki at Phosphodiesterase 1 [1] was found to be 717 µM; at Phosphodiesterase 3 [2], 217 µM.

Regarding `COc1ccc(-c2nc3ccc[nH]c-3n2)c(OC)c1`, the IC50 in [3] is 57 µM; on Phosphodiesterase 1 [4], 265 µM; on Phosphodiesterase 3 [5], 390 µM.

In the case of `CCCCOc1cc(CC2CNC(=O)N2)ccc1OC` (centres undefined) [RO-201724], the IC50 stood at 390 µM in assay [6] and 250 µM on Phosphodiesterase 1 [7].

`Nc1cc(-c2ccncc2)c[nH]c1=O` [INAMRINONE]: the values for the IC50 (in assay [3]; against Phosphodiesterase 1 [4]) were 700 µM and more than 1000 µM, respectively.

For `CC(C)Cn1c(=O)n(C)c(=O)c2nc[nH]c21` [ISOBUTYLMETHYLXANTHINE], the IC50 was determined as 12 µM in assay [6] and 3.4 µM at Phosphodiesterase 1 [7].

As to `Cn1c(=O)c2nc[nH]c2n(C)c1=O.O` [THEOPHYLLINE], the 50% inhibitory concentration (IC50) in [3] was determined as 210 µM; against Phosphodiesterase 1 [4], 320 µM.

As to `CCCCc1cc2c(=O)cc(C(=O)O)[nH]c2c2c(=O)cc(C(=O)O)[nH]c12` [BUFROLIN], the 50% inhibitory concentration (IC50) in [6] was determined as 80 µM; against Phosphodiesterase 1 [7], 16 µM.

Take `CN(C(=O)CCCOc1ccc2[nH]c(=O)ccc2c1)C1CCCCC1` [CILOSTAMIDE]: the Ki at Phosphodiesterase 1 [8] was determined as 22 µM. This lies in the double-digit micromolar range.

Molecule `COc1cc([S+](C)[O-])ccc1-c1nc2ncccc2[nH]1` (centres undefined) [SULMAZOLE] gave an IC50 in assay [3] of 200 µM.

As to `CCOC(=O)c1c(C)cc2c(CO)n[nH]c(=O)c2c1C` [OXAGRELATE], the Ki at Phosphodiesterase 1 [8] is 10 µM; at Phosphodiesterase 3 [9], 1.4 µM.

`O=C1CCc2cc(OCCCCc3nnnn3C3CCCCC3)ccc2N1` [CILOSTAZOL]: the IC50 on Phosphodiesterase 1 [10] was more than 1000 µM; at Phosphodiesterase 3 [11], 0.19 µM.

For the molecule `COc1ccc(C2CNC(=O)C2)cc1OC1CCCC1` (centres undefined), at Phosphodiesterase 1 [12], the IC25 was 1400 µM. In other words, the millimolar range.

At Phosphodiesterase 3 [5], `OCCN(CCO)c1nc(N2CCCCC2)c2nc(N(CCO)CCO)nc(N3CCCCC3)c2n1` [DIPYRIDAMOLE] came in with a 50% inhibitory concentration (IC50) of 43 µM. In other words, the double-digit micromolar range.

On to `CCOC(=O)c1cnc2c(cnn2CC)c1NN=C(C)C` [ETAZOLATE], for which the results for the inhibition constant (Ki) at Phosphodiesterase 1 [1] and at Phosphodiesterase 3 [13] were 60 µM and 12 µM, respectively.

On Phosphodiesterase 3 [9], `Clc1cccc(Nc2nnc(-c3ccccc3)c3ccccc23)c1` came in with a Ki of 16 µM.

Consider `CC(Cl)C(=O)Nc1ccc(C2=NNC(=O)CC2C)cc1` (centres undefined), for which the inhibition in assay [14] was determined as 0%; on Phosphodiesterase 1 [15], 5%; against Phosphodiesterase 3 [16], 92%.

Consider `CC1CC(=O)NN=C1c1ccc2c(c1)CCC(=O)N2C` (centres undefined), for which the inhibition in [14] was found to be 6%; against Phosphodiesterase 1 [15], 15%; against Phosphodiesterase 3 [16] it was 97%.

In the case of `CSc1ccc(C(=O)c2[nH]c(=O)[nH]c2C)cc1` [ENOXIMONE], the IC50 was 520 µM in [3] and more than 1000 µM against Phosphodiesterase 1 [4].

On Phosphodiesterase 3 [17], `CCc1[nH]c(=O)[nH]c1C(=O)c1ccncc1` [PIROXIMONE] returned an IC50 of 8.6 µM.

Take `CCOC(CN1CCN(S(=O)(=O)c2ccc3ncnc(N(C)c4ccccc4)c3c2)CC1)c1ccccc1` (centres undefined): the inhibition constant Ki at Phosphodiesterase 1 [8] came to 4 µM; at Phosphodiesterase 3 [9], 270 µM.

In the case of `CCC(O)CN(C(=O)CCCCOc1ccc2c(c1)CCC(=O)N2)c1ccccc1` (centres undefined), the IC50 is more than 1000 µM against Phosphodiesterase 1 [10] and 0.073 µM at Phosphodiesterase 3 [11].
